Experiment: xn = mol fraction of the nth substance listed

C=CC(=O)OC + CCCCCO
viscosity [mPa·s], 101.33 kPa
Conditions	308.15 K	318.15 K
x1 = 0.0469	2.288	1.82
x1 = 0.148	1.725	1.406
x1 = 0.2501	1.327	1.104
x1 = 0.3489	1.053	0.89
x1 = 0.4436	0.86	0.735
x1 = 0.5084	0.758	0.651
x1 = 0.545	0.708	0.61
x1 = 0.6489	0.594	0.514
x1 = 0.7484	0.513	0.445
x1 = 0.8456	0.454	0.392
x1 = 0.9477	0.409	0.35

CCCCCOC(C)=O + CCCCCO
viscosity [mPa·s], 101.33 kPa
Conditions	x1 = 0.0982	x1 = 0.1951	x1 = 0.3024	x1 = 0.4009	x1 = 0.5015	x1 = 0.6044	x1 = 0.7081	x1 = 0.8063	x1 = 0.9007
293.15 K	3.552	3.076	2.623	2.266	1.952	1.675	1.436	1.241	1.079
303.15 K	2.583	2.279	1.984	1.747	1.534	1.343	1.174	1.034	0.915
313.15 K	2.039	1.811	1.588	1.407	1.244	1.097	0.966	0.857	0.763
323.15 K	1.198	1.103	1.001	0.924	0.847	0.776	0.709	0.652	0.601

C1CCC2=[NH+]CCCN2CC1.c1nc[n-]n1 + CCCCO
303.15 K, 100 kPa
Conditions	viscosity [mPa·s]
x1 = 0.1001	6.47
x1 = 0.2	12.31
x1 = 0.2999	22.82
x1 = 0.4003	42.54
x1 = 0.4989	74.34
x1 = 0.6002	128.6
x1 = 0.7008	204.7
x1 = 0.7993	423.5
x1 = 0.9002	608.2

C=CC(=O)OC + CCCCO
viscosity [mPa·s], 101.33 kPa
Conditions	308.15 K	318.15 K
x1 = 0.0466	1.721	1.393
x1 = 0.1448	1.322	1.115
x1 = 0.2429	1.042	0.908
x1 = 0.3387	0.847	0.755
x1 = 0.4481	0.688	0.625
x1 = 0.5003	0.63	0.575
x1 = 0.5436	0.589	0.539
x1 = 0.6469	0.512	0.468
x1 = 0.7461	0.459	0.416
x1 = 0.8469	0.422	0.375
x1 = 0.9456	0.399	0.346

C=CC(=O)OCCCC + CCCCO
101.33 kPa
Conditions	viscosity [mPa·s]
293.15 K, x1 = 0.0999	2.173
293.15 K, x1 = 0.2001	1.725
293.15 K, x1 = 0.2999	1.448
293.15 K, x1 = 0.3998	1.245
293.15 K, x1 = 0.5002	1.117
293.15 K, x1 = 0.6002	1.025
293.15 K, x1 = 0.7002	0.9619
293.15 K, x1 = 0.8	0.9168
293.15 K, x1 = 0.9	0.8882
303.15 K, x1 = 0.0999	1.718
303.15 K, x1 = 0.1998	1.385
303.15 K, x1 = 0.3006	1.185
303.15 K, x1 = 0.3999	1.035
303.15 K, x1 = 0.4992	0.9378
303.15 K, x1 = 0.5983	0.8682
303.15 K, x1 = 0.6991	0.8213
303.15 K, x1 = 0.8002	0.784
303.15 K, x1 = 0.9003	0.7678
313.15 K, x1 = 0.1004	1.291
313.15 K, x1 = 0.2001	1.018
313.15 K, x1 = 0.3002	0.8796
313.15 K, x1 = 0.3999	0.7948
313.15 K, x1 = 0.4994	0.7351
313.15 K, x1 = 0.5998	0.7091
313.15 K, x1 = 0.6999	0.6745
313.15 K, x1 = 0.7578	0.6676
313.15 K, x1 = 0.8999	0.6659

CC(C)CO + CCCCO
101 kPa
Conditions	viscosity [mPa·s]
293.15 K, x2 = 0.2	3.68
293.15 K, x2 = 0.4	3.434
293.15 K, x2 = 0.6	3.243
293.15 K, x2 = 0.8	3.078
298.15 K, x2 = 0.0982	3.238
298.15 K, x2 = 0.2007	3.111
298.15 K, x2 = 0.301	3.016
298.15 K, x2 = 0.4046	2.935
298.15 K, x2 = 0.5026	2.859
298.15 K, x2 = 0.6261	2.772
298.15 K, x2 = 0.7024	2.726
298.15 K, x2 = 0.8001	2.672
298.15 K, x2 = 0.9178	2.608
313.15 K, x2 = 0.2	2.022
313.15 K, x2 = 0.4	1.937
313.15 K, x2 = 0.6	1.872
313.15 K, x2 = 0.8	1.818

CCCC=O + CCCCO
viscosity [mPa·s], 100 kPa
Conditions	294.53 K	294.63 K	319.13 K	320.13 K
x2 = 0.59	–	5.78	2.552	–
x2 = 0.9	5.49	–	–	2.98

CCCCCC + CCCCO
viscosity [mPa·s]
Conditions	298.15 K	313.15 K	318.15 K
101 kPa, x2 = 0.08	0.33	–	0.266
101 kPa, x2 = 0.1284	0.345	–	0.284
101 kPa, x2 = 0.1441	0.35	–	0.29
101 kPa, x2 = 0.2	0.385	–	0.311
101 kPa, x2 = 0.28	0.415	–	0.33
101.3 kPa, x2 = 0.0999	0.3222	0.2741	–
101.3 kPa, x2 = 0.1997	0.3628	0.306	–
101.3 kPa, x2 = 0.299	0.4227	0.3503	–
101.3 kPa, x2 = 0.4007	0.5201	0.4169	–
101.3 kPa, x2 = 0.499	0.642	0.5063	–
101.3 kPa, x2 = 0.5988	0.8264	0.6311	–
101.3 kPa, x2 = 0.6996	1.082	0.8166	–
101.3 kPa, x2 = 0.8	1.421	1.041	–
101.3 kPa, x2 = 0.8994	1.888	1.33	–
101.33 kPa, x1 = 0.0971	1.848	–	–
101.33 kPa, x1 = 0.1707	1.496	–	–
101.33 kPa, x1 = 0.2625	1.169	–	–
101.33 kPa, x1 = 0.3521	0.909	–	–
101.33 kPa, x1 = 0.4142	0.778	–	–
101.33 kPa, x1 = 0.562	0.539	–	–
101.33 kPa, x1 = 0.6624	0.44	–	–
101.33 kPa, x1 = 0.8147	0.348	–	–
101.33 kPa, x1 = 0.9267	0.306	–	–
